Source: ChEMBL document CHEMBL1201862, “PubChem BioAssay data set” (2004)
The source made the active and inactive calls.

Experiments:
[1] = target: FAD-linked sulfhydryl oxidase ALR (Homo sapiens, UniProt P55789); assay: ALR-catalysed DTT oxidation blockers – biochemical, H2O2 detection, luminescence, cherry-pick, dose response (AID 493248)
[2] = target: T1, Eukaryotic translation initiation factor 2-alpha kinase 3 (Homo sapiens, UniProt Q9NZJ5); assay: Counterscreen assay for PERK inhibitors: Dose response cell-based high throughput screening assay to measure inhibition of PERK at 6 hours. [Related pubchem assays: 1522, 1416 ]; type: functional
T1 sequence (Q9NZJ5 whole entry): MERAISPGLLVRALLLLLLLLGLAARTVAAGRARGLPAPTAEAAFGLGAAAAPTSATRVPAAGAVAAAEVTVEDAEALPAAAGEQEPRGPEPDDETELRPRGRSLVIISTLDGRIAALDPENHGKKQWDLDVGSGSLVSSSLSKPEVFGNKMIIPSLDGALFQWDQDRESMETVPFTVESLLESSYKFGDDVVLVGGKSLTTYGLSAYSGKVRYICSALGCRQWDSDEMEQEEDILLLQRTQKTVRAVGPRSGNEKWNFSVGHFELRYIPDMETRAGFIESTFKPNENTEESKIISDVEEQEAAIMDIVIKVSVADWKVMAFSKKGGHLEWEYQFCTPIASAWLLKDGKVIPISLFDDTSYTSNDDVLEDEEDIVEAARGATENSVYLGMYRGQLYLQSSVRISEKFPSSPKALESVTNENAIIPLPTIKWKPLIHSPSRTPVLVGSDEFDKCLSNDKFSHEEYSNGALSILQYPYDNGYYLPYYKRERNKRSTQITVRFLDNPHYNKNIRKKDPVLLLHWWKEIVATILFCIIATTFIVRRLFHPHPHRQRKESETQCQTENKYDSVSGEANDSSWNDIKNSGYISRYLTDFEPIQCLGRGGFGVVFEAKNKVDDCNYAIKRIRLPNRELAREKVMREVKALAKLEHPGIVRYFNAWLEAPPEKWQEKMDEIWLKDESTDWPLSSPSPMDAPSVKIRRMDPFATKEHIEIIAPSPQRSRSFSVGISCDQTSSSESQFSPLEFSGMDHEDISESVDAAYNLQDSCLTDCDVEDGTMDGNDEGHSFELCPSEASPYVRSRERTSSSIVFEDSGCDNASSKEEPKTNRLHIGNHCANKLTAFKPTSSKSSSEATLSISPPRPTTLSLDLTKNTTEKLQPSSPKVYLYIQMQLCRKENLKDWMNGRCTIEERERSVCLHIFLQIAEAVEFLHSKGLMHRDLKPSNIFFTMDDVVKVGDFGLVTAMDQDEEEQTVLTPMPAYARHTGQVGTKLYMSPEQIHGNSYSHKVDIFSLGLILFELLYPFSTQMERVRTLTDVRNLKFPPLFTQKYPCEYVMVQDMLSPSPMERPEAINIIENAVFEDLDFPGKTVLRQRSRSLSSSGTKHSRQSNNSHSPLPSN

[3] = target: T1, Eukaryotic translation initiation factor 2-alpha kinase 3; assay: Dose response cell-based high-throughput screening assay to measure PERK inhibition. [Related pubchem assays: 1416 ]; type: functional
[4] = target: Melanin-concentrating hormone receptor 1 (Homo sapiens, UniProt Q99705); assay: Fluorescence-based counterscreen for antagonists of the G-protein coupled receptor 7 (GPR7): cell-based high throughput dose response assay to identify antagonists of the melanin-concentrating hormone receptor 1 (MCHR1).; type: functional
[5] = target: T2, Neuropeptides B/W receptor type 1 (Homo sapiens, UniProt P48145); assay: Fluorescence-based dose response cell-based high throughput screening assay to identify antagonists of the G-protein coupled receptor 7 (GPR7). [Related pubchem assays: 1952 (Screening assay (GPR7 antagonists).), 1880 (Summary AID.)]; type: functional
T2 sequence (P48145 whole entry): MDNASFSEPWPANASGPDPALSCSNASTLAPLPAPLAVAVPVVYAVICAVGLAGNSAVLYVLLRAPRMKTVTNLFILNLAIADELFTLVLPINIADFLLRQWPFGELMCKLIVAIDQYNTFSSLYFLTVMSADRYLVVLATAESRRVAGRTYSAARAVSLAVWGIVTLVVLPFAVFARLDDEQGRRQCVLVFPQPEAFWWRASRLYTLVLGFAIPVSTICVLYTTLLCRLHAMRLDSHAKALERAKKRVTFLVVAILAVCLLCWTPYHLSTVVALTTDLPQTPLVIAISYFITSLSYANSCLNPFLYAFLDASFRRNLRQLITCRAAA

[6] = target: Lysosomal acid glucosylceramidase (Homo sapiens, UniProt P04062); assay: Dose response cell-based high throughput screening assay to identify enhancers of beta-glucosidase activity. [Related pubchem assays: 784 ]; type: functional
Lysosomal acid glucosylceramidase, sequence (P04062 whole entry): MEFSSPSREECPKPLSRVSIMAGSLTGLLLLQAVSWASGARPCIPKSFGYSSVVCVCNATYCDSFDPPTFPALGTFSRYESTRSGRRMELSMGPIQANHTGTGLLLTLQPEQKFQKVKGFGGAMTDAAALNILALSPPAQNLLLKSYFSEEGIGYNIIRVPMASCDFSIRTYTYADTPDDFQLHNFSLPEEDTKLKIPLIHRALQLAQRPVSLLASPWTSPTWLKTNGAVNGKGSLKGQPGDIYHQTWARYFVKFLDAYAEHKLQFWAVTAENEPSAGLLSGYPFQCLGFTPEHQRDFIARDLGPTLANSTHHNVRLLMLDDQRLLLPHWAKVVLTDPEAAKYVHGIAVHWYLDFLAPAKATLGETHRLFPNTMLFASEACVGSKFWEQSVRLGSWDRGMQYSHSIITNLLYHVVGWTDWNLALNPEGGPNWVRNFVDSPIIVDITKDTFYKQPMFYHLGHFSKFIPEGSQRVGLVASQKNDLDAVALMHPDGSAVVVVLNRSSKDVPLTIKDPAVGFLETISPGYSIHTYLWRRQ

Genome polyprotein = Genome polyprotein (dengue virus type 2, UniProt P29990); assay: flavivirus cap methylation enzyme inhibition – biochemical, confirmation dose response, primary screen (AID 588689); type: functional
[7] = target: C-C chemokine receptor type 6 (Homo sapiens, UniProt P51684); assay: antagonism of CCR6 beta-arrestin recruitment – cell-based, luminescent beta-arrestin readout, dose response (AID 504728); type: functional
C-C chemokine receptor type 6, sequence (P51684 whole entry): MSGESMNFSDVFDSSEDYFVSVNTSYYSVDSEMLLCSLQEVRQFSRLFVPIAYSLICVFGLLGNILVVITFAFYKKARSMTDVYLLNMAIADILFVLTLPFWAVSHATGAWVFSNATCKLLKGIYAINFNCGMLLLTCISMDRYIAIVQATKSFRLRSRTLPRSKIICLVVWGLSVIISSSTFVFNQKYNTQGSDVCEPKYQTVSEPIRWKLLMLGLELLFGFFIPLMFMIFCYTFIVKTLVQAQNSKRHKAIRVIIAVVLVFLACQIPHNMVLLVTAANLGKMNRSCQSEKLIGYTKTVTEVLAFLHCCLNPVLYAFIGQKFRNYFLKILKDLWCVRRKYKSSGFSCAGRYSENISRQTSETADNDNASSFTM

Fatty acid synthase [8] = target: T3, Fatty acid synthase (Homo sapiens, UniProt P49327); assay: inhibition of human FAS-TE enzyme activity – biochemical, kinetic fluorescence intensity, dose response (AID 624326); type: functional;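 further: rate of fluorescence rise from hydrolysis of a fluorogenic O-methyl fluorescein ester substrate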
Fatty acid synthase [9] = target: T3, Fatty acid synthase; assay: inhibition of human FAS-TE enzyme activity – biochemical, endpoint fluorescence intensity, uHTS hits, dose response (AID 624327); type: functional;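 further: fluorescence from hydrolysis of an O-methyl fluorescein acyl ester substrate by the enzyme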
[10] = viability loss in HeLa cells – cytotoxicity control for MgcRacGAP inhibitor project, dose response (AID 624300); type: functional
Beta-galactosidase [11] = target: T4, Beta-galactosidase (Escherichia coli, UniProt Q8VNN2); assay: detection-enzyme interference by beta-gal modulators – biochemical, E. coli enzyme, set 3, artefact control for CCR6 antagonist project, dose response (AID 504712); type: functional
T4 sequence (Q8VNN2 whole entry): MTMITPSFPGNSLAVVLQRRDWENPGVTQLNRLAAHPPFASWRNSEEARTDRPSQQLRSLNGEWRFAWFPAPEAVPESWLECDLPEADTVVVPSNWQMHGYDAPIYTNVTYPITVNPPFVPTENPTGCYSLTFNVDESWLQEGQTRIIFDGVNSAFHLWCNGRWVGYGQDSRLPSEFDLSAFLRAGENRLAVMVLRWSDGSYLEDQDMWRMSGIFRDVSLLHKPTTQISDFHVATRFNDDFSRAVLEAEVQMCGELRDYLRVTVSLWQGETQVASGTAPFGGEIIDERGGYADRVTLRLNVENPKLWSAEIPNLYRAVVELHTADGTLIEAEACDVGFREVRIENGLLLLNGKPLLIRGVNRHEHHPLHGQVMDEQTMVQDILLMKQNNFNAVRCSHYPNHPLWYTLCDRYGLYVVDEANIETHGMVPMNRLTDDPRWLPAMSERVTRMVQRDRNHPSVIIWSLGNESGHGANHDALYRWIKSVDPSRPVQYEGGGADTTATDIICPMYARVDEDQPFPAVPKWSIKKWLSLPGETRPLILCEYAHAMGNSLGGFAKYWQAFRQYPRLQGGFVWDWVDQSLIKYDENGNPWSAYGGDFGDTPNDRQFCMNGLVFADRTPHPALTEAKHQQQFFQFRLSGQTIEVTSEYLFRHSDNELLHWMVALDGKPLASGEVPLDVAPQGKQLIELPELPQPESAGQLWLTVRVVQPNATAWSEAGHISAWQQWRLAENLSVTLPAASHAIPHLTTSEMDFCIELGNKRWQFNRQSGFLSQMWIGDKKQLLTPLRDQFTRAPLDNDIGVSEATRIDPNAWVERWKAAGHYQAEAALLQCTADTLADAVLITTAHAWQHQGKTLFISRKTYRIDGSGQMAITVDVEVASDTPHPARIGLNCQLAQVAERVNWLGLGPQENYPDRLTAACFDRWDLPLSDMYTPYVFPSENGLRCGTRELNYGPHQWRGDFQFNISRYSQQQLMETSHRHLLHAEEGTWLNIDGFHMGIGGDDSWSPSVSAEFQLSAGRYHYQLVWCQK

[12] = target: T5, Rac GTPase-activating protein 1 (Homo sapiens, UniProt Q9H0H5); assay: blockers of MgcRacGAP-driven Rac1 GTP hydrolysis – biochemical, ADP Hunter fluorescence, primary and confirmatory, confirmation (AID 624330); type: functional
T5 sequence (Q9H0H5 whole entry): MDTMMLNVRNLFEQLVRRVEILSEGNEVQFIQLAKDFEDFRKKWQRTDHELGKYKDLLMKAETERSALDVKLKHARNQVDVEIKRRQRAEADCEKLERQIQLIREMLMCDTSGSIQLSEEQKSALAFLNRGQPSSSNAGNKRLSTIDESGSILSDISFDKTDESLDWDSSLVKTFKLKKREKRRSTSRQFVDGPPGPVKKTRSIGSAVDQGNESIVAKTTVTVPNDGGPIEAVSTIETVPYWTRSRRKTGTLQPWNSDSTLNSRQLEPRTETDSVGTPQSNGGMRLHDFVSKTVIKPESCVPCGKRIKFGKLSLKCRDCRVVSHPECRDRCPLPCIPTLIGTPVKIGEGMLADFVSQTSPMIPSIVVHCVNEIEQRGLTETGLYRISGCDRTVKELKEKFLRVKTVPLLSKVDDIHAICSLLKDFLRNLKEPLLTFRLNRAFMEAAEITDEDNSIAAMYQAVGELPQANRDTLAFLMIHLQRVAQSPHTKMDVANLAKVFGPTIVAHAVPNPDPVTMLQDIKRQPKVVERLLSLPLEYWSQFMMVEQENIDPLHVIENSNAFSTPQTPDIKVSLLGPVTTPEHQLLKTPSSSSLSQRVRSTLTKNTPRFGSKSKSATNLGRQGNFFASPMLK

[13] = non-specific 3'UTR reporter inhibition in Clone20-Shn3RL – cell-based, Renilla luciferase, cherry-picked, counter-screen for Shn3 inhibitor project, dose response (AID 624133); type: functional
Vero = assay: viability of Vero cells under compound – cytotoxicity control for flavivirus capping enzyme inhibitors (AID 588742); type: functional; conditions: Chlorocebus sabaeus
[14] = loss of viability in HepG2 cells – cell-based, CellTiter-Glo, cherry-picked, cytotoxicity control for Shn3 inhibitor project, dose response (AID 624134); type: functional
[15] = reduction of Shn3 3'UTR-driven luciferase in osteoblasts – cell-based, Clone20 osteoblasts, firefly luciferase, cherry-picked, dose response (AID 624132); type: functional;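 further: firefly luciferase luminescence from reporter carrying the Shn3 3'UTR in osteoblasts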
[16] = target: Metabotropic glutamate receptor 4 (Rattus norvegicus, UniProt P31423); assay: Modulation of the Metabotropic Glutamate Receptor mGluR4: Rat PAM Potency. [Related pubchem assays (depositor defined):AID2437, AID2807]; type: functional
[17] = target: T6, Voltage-gated N-type calcium channel alpha-1B subunit/Amyloid beta A4 precursor protein-binding family A member 1 (Homo sapiens, UniProt Q00975+Q02410); assay: disruptors of Mint-PDZ/N-type channel peptide interaction – biochemical, HTRF, set 2, SAR follow-up (AID 434980); type: functional
T6 sequence (Q00975 whole entry): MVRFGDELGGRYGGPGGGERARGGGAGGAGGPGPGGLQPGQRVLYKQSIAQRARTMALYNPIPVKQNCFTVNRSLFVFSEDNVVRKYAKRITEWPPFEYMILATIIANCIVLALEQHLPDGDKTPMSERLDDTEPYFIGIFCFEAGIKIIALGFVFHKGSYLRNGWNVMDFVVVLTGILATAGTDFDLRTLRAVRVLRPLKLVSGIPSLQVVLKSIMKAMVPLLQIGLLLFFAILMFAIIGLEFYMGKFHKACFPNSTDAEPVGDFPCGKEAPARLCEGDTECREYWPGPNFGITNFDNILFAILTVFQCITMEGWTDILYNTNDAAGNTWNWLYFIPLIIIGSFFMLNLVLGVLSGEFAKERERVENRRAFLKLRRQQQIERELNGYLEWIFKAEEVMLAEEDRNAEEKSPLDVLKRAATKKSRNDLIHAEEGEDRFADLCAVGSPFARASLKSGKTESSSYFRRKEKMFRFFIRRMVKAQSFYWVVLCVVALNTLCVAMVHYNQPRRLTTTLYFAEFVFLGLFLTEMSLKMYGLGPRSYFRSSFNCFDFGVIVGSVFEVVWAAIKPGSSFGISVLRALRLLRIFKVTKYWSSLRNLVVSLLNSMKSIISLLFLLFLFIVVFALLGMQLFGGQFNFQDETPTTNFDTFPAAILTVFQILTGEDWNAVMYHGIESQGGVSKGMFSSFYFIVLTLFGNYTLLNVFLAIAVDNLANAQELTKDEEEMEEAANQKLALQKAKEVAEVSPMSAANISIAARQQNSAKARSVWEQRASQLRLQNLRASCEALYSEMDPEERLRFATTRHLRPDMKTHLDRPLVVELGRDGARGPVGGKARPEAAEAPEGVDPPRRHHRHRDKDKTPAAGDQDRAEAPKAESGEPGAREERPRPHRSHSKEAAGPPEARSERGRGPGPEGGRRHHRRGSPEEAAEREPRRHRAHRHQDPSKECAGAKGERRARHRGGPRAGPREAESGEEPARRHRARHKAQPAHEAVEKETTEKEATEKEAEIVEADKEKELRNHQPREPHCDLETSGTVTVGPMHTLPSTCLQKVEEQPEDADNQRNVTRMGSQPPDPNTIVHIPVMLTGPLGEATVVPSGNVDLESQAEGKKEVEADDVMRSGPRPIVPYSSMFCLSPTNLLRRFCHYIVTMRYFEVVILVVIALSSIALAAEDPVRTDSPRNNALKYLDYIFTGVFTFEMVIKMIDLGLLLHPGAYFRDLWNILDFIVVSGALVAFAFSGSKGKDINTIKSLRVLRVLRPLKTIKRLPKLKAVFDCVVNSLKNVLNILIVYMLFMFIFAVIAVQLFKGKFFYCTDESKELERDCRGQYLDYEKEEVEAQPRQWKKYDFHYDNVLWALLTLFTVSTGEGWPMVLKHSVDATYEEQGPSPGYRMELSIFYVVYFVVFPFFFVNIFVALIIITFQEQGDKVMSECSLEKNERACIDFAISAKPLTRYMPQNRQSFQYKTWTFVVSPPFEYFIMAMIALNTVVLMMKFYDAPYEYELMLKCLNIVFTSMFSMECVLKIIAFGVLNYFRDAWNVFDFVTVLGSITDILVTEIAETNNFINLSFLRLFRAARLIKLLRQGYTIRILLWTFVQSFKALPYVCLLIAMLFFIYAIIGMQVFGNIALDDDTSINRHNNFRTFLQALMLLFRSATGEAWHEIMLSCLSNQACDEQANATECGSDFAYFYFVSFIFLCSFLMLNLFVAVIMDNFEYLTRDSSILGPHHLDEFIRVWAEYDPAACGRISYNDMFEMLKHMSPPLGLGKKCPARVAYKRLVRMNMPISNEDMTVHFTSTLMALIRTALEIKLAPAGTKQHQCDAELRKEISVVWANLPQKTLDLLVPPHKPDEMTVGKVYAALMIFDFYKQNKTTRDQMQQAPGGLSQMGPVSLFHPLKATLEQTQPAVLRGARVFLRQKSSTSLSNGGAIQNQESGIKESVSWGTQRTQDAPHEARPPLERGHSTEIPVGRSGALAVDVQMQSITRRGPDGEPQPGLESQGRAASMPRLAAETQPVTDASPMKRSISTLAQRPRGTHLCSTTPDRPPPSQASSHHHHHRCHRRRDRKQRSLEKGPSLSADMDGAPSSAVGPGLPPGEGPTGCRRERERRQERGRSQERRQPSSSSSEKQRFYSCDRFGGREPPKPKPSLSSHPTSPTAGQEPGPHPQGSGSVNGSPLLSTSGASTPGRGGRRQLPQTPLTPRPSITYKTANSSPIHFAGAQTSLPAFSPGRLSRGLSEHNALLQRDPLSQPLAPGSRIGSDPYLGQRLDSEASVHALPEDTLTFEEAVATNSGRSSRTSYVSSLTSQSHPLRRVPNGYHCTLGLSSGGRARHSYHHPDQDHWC
T6 sequence (Q02410 whole entry): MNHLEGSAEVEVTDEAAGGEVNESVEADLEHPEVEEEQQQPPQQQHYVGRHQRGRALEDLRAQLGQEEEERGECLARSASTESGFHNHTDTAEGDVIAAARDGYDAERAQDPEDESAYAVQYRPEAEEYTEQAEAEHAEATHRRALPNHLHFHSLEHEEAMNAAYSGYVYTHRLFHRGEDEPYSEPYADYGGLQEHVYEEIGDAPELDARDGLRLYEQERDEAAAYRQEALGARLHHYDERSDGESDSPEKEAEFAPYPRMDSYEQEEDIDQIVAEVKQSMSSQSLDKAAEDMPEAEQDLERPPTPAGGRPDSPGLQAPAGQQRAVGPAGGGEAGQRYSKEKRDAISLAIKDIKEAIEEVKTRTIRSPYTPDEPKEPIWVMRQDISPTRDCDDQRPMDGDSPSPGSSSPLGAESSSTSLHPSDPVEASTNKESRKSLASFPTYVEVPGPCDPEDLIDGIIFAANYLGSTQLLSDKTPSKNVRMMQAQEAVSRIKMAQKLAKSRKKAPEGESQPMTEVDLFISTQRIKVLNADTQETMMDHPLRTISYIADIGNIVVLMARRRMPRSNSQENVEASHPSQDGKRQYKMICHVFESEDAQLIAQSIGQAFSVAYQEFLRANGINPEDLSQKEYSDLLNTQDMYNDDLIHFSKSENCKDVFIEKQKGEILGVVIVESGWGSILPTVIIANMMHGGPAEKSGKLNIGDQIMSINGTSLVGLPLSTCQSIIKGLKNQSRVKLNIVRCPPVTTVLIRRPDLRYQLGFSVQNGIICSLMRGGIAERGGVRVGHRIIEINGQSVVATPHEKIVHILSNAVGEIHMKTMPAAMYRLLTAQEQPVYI

[18] = target: T6, Voltage-gated N-type calcium channel alpha-1B subunit/Amyloid beta A4 precursor protein-binding family A member 1; assay: disruptors of Mint-PDZ/N-type channel peptide interaction – biochemical, HTRF, SAR follow-up (AID 2489); type: functional
Streptococcus [19] = assay: GAS UMAA2166 growth inhibition – luminescence, BacTiterGlo, counter-screen for streptokinase expression inhibitor project, dose response (AID 1915); type: functional, organism-based;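 further: potency for reduction of bacterial viability or growth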
Streptokinase A = target: T7, Streptokinase A (Streptococcus pyogenes serotype M1, UniProt P10520); assay: viability-normalized secreted streptokinase activity reduction – plasminogen activation absorbance, OD405, dose response (AID 1914); type: functional, Streptococcus pyogenes M1 GAS;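 further: secreted streptokinase activity via plasminogen activation per viability signal from cell pellet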
T7 sequence (P10520 whole entry): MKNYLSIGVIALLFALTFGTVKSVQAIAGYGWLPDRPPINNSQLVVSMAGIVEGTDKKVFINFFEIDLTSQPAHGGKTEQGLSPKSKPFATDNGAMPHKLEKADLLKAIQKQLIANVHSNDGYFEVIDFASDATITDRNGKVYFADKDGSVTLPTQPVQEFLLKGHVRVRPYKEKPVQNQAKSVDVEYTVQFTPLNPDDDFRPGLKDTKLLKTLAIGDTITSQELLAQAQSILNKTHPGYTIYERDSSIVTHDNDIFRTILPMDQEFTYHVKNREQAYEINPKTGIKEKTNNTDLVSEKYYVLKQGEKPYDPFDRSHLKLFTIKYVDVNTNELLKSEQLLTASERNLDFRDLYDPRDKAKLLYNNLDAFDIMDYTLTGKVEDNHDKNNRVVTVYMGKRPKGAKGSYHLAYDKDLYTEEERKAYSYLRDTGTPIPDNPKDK

Streptococcus [20] = assay: Luminescence Microorganism-Based Dose Response Follow up to Identify Compounds Cytotoxic to Streptococcus. [Related pubchem assays: 1677 (Project Summary), 1915, 1914, 1902 (Retest at Dose), 1900 (Counter Screen), 1662 (Primary HTS)]; type: functional, organism-based
[21] = test system: Streptococcus sp. 'group A'; assay: Streptococcus pyogenes SK(-)GAS viability under kanamycin – luminescence, BacTiterGlo, confirmation, counter-screen for streptokinase expression inhibitor project, dose response (AID 1900); type: functional, organism-based
Beta-galactosidase [22] = target: T4, Beta-galactosidase; assay: Dose response counterscreen for EBI2 assay utilizing the enzyme, b-galactosidase.; type: functional

## CC(=O)c1ccc(N/N=C2/CCCNC2=O)cc1
[1]
  AC50: 3.67 µM (active)
[2]
  EC50: > 55.7 µM (not active)
[3]
  EC50: > 55.7 µM (not active)

## O=C(NC1CCCCCCC1)C1c2ccccc2C(=O)N1Cc1ccco1 (centres undefined)
[4]
  IC50: > 43.8 µM (not active)
[5]
  IC50: > 43.8 µM (not active)

## CC(C)(C)NC(=O)CSc1nnc(-c2ccco2)n1Cc1ccco1
[6]
  EC50: > 50 µM (not active)

## CC1(C)CC[C@]2(C(=O)n3ccnc3)CC[C@]3(C)[C@H](C(=O)C=C4[C@@]5(C)C=C(C#N)C(=O)C(C)(C)[C@@H]5CC[C@]43C)[C@@H]2C1
Genome polyprotein
  IC50: 38.2 µM (active)
[7]
  IC50: 11.5 µM (active)
Fatty acid synthase [8]
  IC50: 1.77 µM (active)
Fatty acid synthase [9]
  IC50: 2.85 µM (active)
[10]
  CC50: 5.19 µM (active)
Beta-galactosidase [11]
  IC50: > 66.6 µM (inactive)
[12]
  IC50: 20.7 µM (active)
[13]
  AC50: 0.376 µM (active)
Vero
  CC50: < 0.63 µM (active)
[14]
  AC50: 5.13 µM (active)
[15]
  AC50: < 0.26 µM (active)

## O=C(Nc1ccc(N2C(=O)[C@@H]3[C@H](C2=O)[C@H]2C=C[C@@H]3CC2)c(Cl)c1)c1ccccn1
[16]
  EC50: 0.25 µM (active)

## O=C(c1cc(-c2ccco2)nc2ccccc12)N1CCCCC1Cc1ccccc1 (centres undefined)
[17]
  IC50: > 56.8 µM (inactive)
[18]
  IC50: > 56.8 µM (inactive)

## C=CCS/C(N)=N\N=C\c1cc(Br)cc([N+](=O)[O-])c1O
[7]
  IC50: > 66.6 µM (inactive)
Beta-galactosidase [11]
  IC50: > 66.6 µM (inactive)

## O=C(CCCn1c(=S)[nH]c2cc3c(cc2c1=O)OCO3)N1CCN(c2ncccn2)CC1
[6]
  EC50: > 50 µM (not active)

## Cc1ccc(NC(=O)COC(=O)CCc2c[nH]c(O)n2)cc1
[2]
  EC50: > 55.7 µM (not active)
[3]
  EC50: > 55.7 µM (not active)

## COc1ccc2oc(C(=O)N3CCN(C(c4ccccc4)c4ccccc4)CC3)c(C)c2c1
Streptococcus [19]
  EC50: > 150 µM (not active)
Streptokinase A
  EC50: 4.97 µM (active)
Streptococcus [20]
  EC50: > 500 µM (not active)
[21]
  EC50: 32.2 µM (active)
Beta-galactosidase [22]
  IC50: > 80 µM (inactive)

## Cc1cc2oc(=O)cc(CN(C)Cc3ccccc3)c2cc1C(C)C
Streptococcus [19]
  EC50: > 150 µM (not active)
Streptokinase A
  EC50: 8.46 µM (active)
Streptococcus [20]
  EC50: > 500 µM (not active)
[21]
  EC50: 13.3 µM (active)
